The compounds below were run against T1, AChE (Homo sapiens, UniProt P22303) (assay: biochemical).
T1 construct: purchased Sigma Aldrich, Taufkirchen, D
T1 sequence (P22303 32-614): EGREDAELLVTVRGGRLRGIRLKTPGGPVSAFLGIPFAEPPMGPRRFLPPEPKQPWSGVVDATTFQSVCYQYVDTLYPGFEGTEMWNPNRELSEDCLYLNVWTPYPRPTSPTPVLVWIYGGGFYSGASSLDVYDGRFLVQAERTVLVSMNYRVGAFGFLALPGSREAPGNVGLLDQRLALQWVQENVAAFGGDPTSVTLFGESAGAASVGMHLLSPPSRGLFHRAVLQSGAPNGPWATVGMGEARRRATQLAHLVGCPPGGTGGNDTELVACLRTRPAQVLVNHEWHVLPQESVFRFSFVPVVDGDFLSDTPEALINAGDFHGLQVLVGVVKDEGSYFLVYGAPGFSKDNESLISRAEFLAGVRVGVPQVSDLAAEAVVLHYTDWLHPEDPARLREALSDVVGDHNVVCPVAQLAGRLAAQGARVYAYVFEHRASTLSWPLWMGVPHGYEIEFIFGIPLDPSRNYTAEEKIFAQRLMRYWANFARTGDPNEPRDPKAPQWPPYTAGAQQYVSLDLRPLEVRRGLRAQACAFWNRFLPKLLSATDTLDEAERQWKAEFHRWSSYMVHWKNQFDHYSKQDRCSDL
`CC1N=C(CCCCCCCCCCc2cc(O)ccc2OC2OC(CO)C(O)C(O)C2O)CC1O` (stereo not drawn) [compound 1, tiliine A] was tested, and the IC50 was 231 µM.
In the case of `CC1NC(CCCCCCCCCc2cc(O)ccc2OC2OC(CO)C(O)C(O)C2O)CCC1O` (stereo not drawn) [compound 2, tiliamine A], the IC50 is reported as 172 µM.
`CC(=O)OC1CCC(CCCCCCCCCc2cc(O)ccc2O[C@@H]2O[C@H](CO)[C@@H](O)[C@H](O)[C@H]2O)NC1C` (stereo partly drawn) [compound 3, acetyl-tiliamine A] was tested, and the IC50 was 50% inhibition level was not achieved.

Source: EP3960174B1 (priority 2020, dated 2022)
